Reference: ChEMBL document CHEMBL1139038, “Design and synthesis of 3-substituted benzamide derivatives as Bcr-Abl kinase inhibitors” (Bioorg Med Chem Lett, 2006)
Values belong to the molecule of their own block, whether it stands above or below them.

What was measured:
[1] = system: K562; experiment: Antiproliferative activity against K562 cells; type: functional, cell-based; settings: Homo sapiens
[2] = system: U-937; experiment: Antiproliferative activity against U937 cells; type: functional, cell-based; settings: Homo sapiens

SMILES: Cc1ccc(NC(=O)c2ccc(CN3CC(N(C)C)C3)c(C(F)(F)F)c2)cc1Nc1nccc(-c2cncnc2)n1
- IC50 [1]: 0.017 µM
- IC50 [2]: > 100 µM

SMILES: Cc1ccc(NC(=O)c2ccc(CN3CCN(C)CC3)c(I)c2)cc1Nc1nccc(-c2cccnc2)n1
- IC50 [1]: 0.01 µM
- IC50 [2]: 6 µM

SMILES: Cc1ccc(NC(=O)c2ccc(CN3CC[C@H](N(C)C)C3)c(C(F)(F)F)c2)cc1Nc1nccc(-c2cncnc2)n1 [BAFETINIB]
- IC50 [1]: 0.011 µM
- IC50 [2]: 10 µM

SMILES: Cc1ccc(NC(=O)c2ccc(CN3CCN(C)CC3)c(Br)c2)cc1Nc1nccc(-c2cccnc2)n1
- IC50 [2]: 5 µM

SMILES: Cc1ccc(NC(=O)c2ccc(CN3CCN(C)CC3)c(F)c2)cc1Nc1nccc(-c2cccnc2)n1
- IC50 [2]: 8 µM

SMILES: Cc1ccc(NC(=O)c2ccc(CN3CCN(C)CC3)c(C(F)(F)F)c2)cc1Nc1nccc(-c2cccnc2)n1
- IC50 [2]: 4 µM

SMILES: Cc1ccc(NC(=O)c2ccc(CN3CC[C@@H](N(C)C)C3)c(C(F)(F)F)c2)cc1Nc1nccc(-c2cncnc2)n1
- IC50 [1]: 0.004 µM
- IC50 [2]: 9 µM

SMILES: Cc1ccc(NC(=O)c2ccc(CN3CCN(C)CC3)c(C(F)(F)F)c2)cc1Nc1nccc(-c2cncnc2)n1
- IC50 [2]: 5 µM

The remaining lines, values ahead:

- IC50 [1]: 0.009 µM
- IC50 [2]: > 100 µM
SMILES: Cc1ccc(NC(=O)c2ccc(CN3CC[C@@H](CN(C)C)C3)c(C(F)(F)F)c2)cc1Nc1nccc(-c2cncnc2)n1

- IC50 [2]: 14 µM
SMILES: Cc1ccc(NC(=O)c2ccc(CN3CCN(C)CC3)cc2)cc1Nc1nccc(-c2cccnc2)n1 [IMATINIB]

- IC50 [1]: 0.01 µM
- IC50 [2]: 9 µM
SMILES: Cc1ccc(NC(=O)c2ccc(CN3CCN(C)CC3)c(Cl)c2)cc1Nc1nccc(-c2cccnc2)n1

- IC50 [1]: 0.011 µM
- IC50 [2]: 20 µM
SMILES: Cc1ccc(NC(=O)c2ccc(CN3CC[C@H](CN(C)C)C3)c(C(F)(F)F)c2)cc1Nc1nccc(-c2cncnc2)n1
